Data as given in patent publication US6602517B2, “Dietary supplements for treating inflammation-related diseases” (Metagenics, Inc., priority 1999, dated 2003).

Experiment: ORAC assay (inhibition of peroxyl-radical quenching of β-phycoerythrin fluorescence)
Format: biochemical
Conditions: for AUC/μg mean: pure samples (100% by weight); for ORAC units (U): pure samples, normalized to Trolox on a weight basis
Source text: Method: In order to determine the antioxidant capacity of the subject phytonutrients, the ORAC assay (Cao, G et al., Free Rad. Biol. Med. 14: 303-311[…]) was utilized. This simple procedure relies on the fact that peroxyl radicals will quench the fluorescence of β-phycoerythrin (β-PE) The addition of an antioxidant capable of scavenging these radicals is able to inhibit fluorescence quenching. Fluorescence is monitored as a function of time and the extent of quenching and its inhibition can be determined by calculating the area under the curve (AUC).
A typical reaction will contain 1.67×10^−8 M β-PE in phosphate buffer and 3×10^−3 M 2,2′-azobis(2-amidinopropane)dihydochloride (AAPH) as well as test material. The reaction is initiated by the addition of the peroxyl-radical generating reagent AAPH. […] The difference, or net protection, is equal to AUCsample−AUCblank, and represents the antioxidant capacity of the sample. […] Where one ORAC unit (U) is defined as the net protection provided by 1 nmol/ml Trolox (i.e., 1 μM). […] The final results are normalized to Trolox on a weight basis.
units=(AUC/μg)test/(AUC/μg)trolox.
To generate the data set forth in the present example, samples were prepared in acetonitrile, sometimes with the aid of sonication to facilitate dissolution. One to five μl of sample was added to each 3 ml cuvette, the reaction initiated with AAPH and fluorescence monitored until the quenching was complete. The predicted value for the mixtures was calculated by using the following equation: […]

SMILES: Cc1c(C)c2c(c(C)c1O)CCC(C)(C(=O)O)O2 (centres unmarked) [Trolox, reference compound]
- AUC/μg mean: 8.9 AUC/μg
- ORAC units (U): 1.00 U

SMILES: COc1cc(/C=C/C(=O)CC(=O)/C=C/c2ccc(O)c(OC)c2)ccc1O [curcumin]
- AUC/μg mean: 15.93 AUC/μg

SMILES: O=c1c(O)c(-c2ccc(O)c(O)c2)oc2cc(O)cc(O)c12 [quercetin]
- AUC/μg mean: 14.45 AUC/μg
- ORAC units (U): 1.62 U
